Patent US20240409519A1, “HYDROGENATED QUINOXALINES” (OTSUKA PHARMACEUTICAL CO., LTD., priority 2021, published 2024)

Columns and labels:
Type in all cases: in vitro ADME
[1] = Protein binding rate test (human serum, equilibrium dialysis); conditions: test compound 0.001 mmol/L, equilibrium dialysis 37° C. 6 hours
Description: A serum sample was prepared by adding a test compound solution to a human serum (final concentration of the test compound: 0.001 mmol/L). The serum sample and Dulbecco's Phosphate-Buffered Saline (D-PBS(−)) were added to the wells separated by a dialysis membrane to start the reaction. A solution of the internal standard in methanol was prepared and used as a quenching solution.
Specifically, the dialysis membrane (cut-off molecular weight 12000-14000) was pre-conditioned by immersing it in distilled water, followed by 20% ethanol. Then, the membrane was washed with D-PBS(−) and set in an equilibrium dialysis kit. Then, 150 μL of D-PBS(−) was added to one part of each well divided by the dialysis membrane, and 150 μL of serum sample was added to the other part. After sealing all wells and incubation at 37° C. for 6 hours, 30 μL from the serum side and 90 μL from the PBS side of each well were collected and mixed with 90 μL of D-PBS(−) or 30 μL of blank serum and 480 μL of a quenching solution to quench the reaction.
The mixture was centrifuged (6130 g, 4° C., 10 minutes) and the supernatant was used as a sample for LC-MS/MS.
Peak area ratio ([peak area of test compound]/[peak area of internal standard]) was calculated for the test compound and the internal standard. By comparing the peak area ratio of the PBS side for each test compound with that of the serum side, the protein binding rate (%) of each test compound was calculated from (1-[peak area ratio of PBS side]/[peak area ratio of serum side])×100.

CYP2D6 = target: T1, CYP2D6 (Homo sapiens, UniProt P10635); assay: CYP inhibition test (1): inhibition rate (%) at one concentration, CYP2D6; conditions: human liver microsomes, pH 7.4, probe bufuralol (0.01 mmol/L); test compound 0.01 mmol/L, human liver microsome 0.1 mg/mL, substrate bufuralol, 37° C. 10 minutes; read-out: inhibition rate (%) 2D6
T1 construct: a human liver microsome solution containing three CYP-specific substrates; from tissue; host or cells: human liver microsomes
Description: (§1) A metabolic reaction was initiated by adding and mixing a test compound solution (final concentration 0.01 mmol/L) and a NADH/NADPH solution (final concentration 1 mmol/L) to a human liver microsome solution containing three CYP-specific substrates (final concentration 100 mmol/L potassium phosphate buffer solution (pH 7.4), 5 mmol/L magnesium chloride, 0.1 mg/mL human liver microsome, 0.005 mmol/L diclofenac (for CYP2C9), 0.01 mmol/L bufuralol (for […]), 0.005 mmol/L midazolam (for CYP3A4)). As an internal standard solution, a solution of each of stable isotopes of the metabolites (50 ng/mL [13C6] hydroxy diclofenac, 5 ng/mL [2H9] hydroxy bufuralol, and 5 ng/mL [13C6] hydroxy midazolam (all stable isotopes)) in methanol was prepared and used as a quenching solution.
(§2) Specifically, a metabolic reaction was initiated by adding and mixing 2 μL of a solution of a test compound in acetonitrile (or acetonitrile as a control) to 178 μL of a human liver microsome solution in ice water, followed by preincubation at 37° C. for 1 minute, and then adding 20 μL of a NADH/NADPH solution thereto. After incubation at 37° C. for 10 minutes, 50 μL of the reaction mixture was taken, and then it was added and mixed to 500 μL of a quenching solution to quech the reaction. The mixture was centrifuged (6130 g, 4° C., 10 minutes) and the supernatant was used as a sample for LC-MS/MS.
(§3) Peak area ratio ([peak area of metabolite]/[peak area of corresponding stable isotope]) was calculated for a metabolite and a stable isotope of the metabolite as measurement object. By comparing the peak area ratio of each test compound solution with that of the control, the inhibition rate (%) of each CYP species for each test compound was calculated from (1-[peak area ratio of each test compound solution]/[peak area ratio of control])×100.

CYP2C9 = target: T2, CYP2C9 (Homo sapiens, UniProt P11712); assay: CYP inhibition test (1): inhibition rate (%) at one concentration, CYP2C9; conditions: human liver microsomes, pH 7.4, probe diclofenac (0.005 mmol/L); test compound 0.01 mmol/L, human liver microsome 0.1 mg/mL, substrate diclofenac, 37° C. 10 minutes; read-out: inhibition rate (%) 2C9
T2 construct: a human liver microsome solution containing three CYP-specific substrates; from tissue; host or cells: human liver microsomes
Description: as §1, §2, §3

CYP3A4 = target: T3, CYP3A4 (Homo sapiens, UniProt P08684); assay: CYP inhibition test (1): inhibition rate (%) at one concentration, CYP3A4; conditions: human liver microsomes, pH 7.4, probe midazolam (0.005 mmol/L); test compound 0.01 mmol/L, human liver microsome 0.1 mg/mL, substrate midazolam, 37° C. 10 minutes; read-out: inhibition rate (%) 3A4
T3 construct: a human liver microsome solution containing three CYP-specific substrates; from tissue; host or cells: human liver microsomes
Description: as §1, §2, §3

T3 sequence (P08684 whole entry): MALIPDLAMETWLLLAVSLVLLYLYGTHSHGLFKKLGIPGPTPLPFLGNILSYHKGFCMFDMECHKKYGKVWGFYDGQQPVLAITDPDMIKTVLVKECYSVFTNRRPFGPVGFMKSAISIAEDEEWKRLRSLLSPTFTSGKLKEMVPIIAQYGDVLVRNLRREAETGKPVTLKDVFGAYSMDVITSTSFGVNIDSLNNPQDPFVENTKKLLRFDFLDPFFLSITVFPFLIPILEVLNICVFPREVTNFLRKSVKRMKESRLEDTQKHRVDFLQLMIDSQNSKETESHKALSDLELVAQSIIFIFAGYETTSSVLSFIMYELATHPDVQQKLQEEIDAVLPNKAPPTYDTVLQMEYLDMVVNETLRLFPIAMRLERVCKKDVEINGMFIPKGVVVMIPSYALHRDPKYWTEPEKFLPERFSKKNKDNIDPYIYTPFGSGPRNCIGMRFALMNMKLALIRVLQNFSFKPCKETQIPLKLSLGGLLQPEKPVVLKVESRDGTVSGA
T1 sequence (P10635 whole entry): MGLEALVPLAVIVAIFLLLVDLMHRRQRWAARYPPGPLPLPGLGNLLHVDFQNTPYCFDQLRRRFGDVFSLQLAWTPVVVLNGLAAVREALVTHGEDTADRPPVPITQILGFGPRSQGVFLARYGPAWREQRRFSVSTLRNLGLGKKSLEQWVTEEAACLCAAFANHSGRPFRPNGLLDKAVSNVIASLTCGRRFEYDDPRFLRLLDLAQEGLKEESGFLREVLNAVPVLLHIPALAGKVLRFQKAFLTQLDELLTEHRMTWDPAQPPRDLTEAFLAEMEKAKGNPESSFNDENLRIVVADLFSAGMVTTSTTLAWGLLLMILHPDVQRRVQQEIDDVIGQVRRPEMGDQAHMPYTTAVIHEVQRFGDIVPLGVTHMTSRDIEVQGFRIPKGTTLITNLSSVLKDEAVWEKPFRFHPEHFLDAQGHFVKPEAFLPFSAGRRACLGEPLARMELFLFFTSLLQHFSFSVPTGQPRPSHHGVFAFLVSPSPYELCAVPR
T2 sequence (P11712 whole entry): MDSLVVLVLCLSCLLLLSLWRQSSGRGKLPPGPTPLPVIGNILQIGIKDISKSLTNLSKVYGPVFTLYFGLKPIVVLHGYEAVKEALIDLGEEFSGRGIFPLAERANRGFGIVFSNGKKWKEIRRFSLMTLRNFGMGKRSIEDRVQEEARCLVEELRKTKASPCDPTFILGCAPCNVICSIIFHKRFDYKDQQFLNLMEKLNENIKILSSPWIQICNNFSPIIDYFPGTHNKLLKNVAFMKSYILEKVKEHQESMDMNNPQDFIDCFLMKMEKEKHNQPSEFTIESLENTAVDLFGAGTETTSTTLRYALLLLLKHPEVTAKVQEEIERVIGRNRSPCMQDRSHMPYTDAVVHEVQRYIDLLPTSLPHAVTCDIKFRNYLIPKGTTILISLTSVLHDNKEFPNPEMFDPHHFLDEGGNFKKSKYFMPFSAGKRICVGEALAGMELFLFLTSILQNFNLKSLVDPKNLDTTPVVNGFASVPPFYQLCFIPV

| Structure (SMILES) | fraction unbound at 6 h, 0.001 mmol/L [1] | inhibition at 10 min, 0.01 mmol/L (CYP2D6) | inhibition at 10 min, 0.01 mmol/L (CYP2C9) | inhibition at 10 min, 0.01 mmol/L (CYP3A4) |
| --- | --- | --- | --- | --- |
| CC1(C)CN(c2cc(F)c(OC(F)(F)CO)cc2F)[C@H]2CCCC[C@@H]2N1 [Example 77] | 0.411 | 18.1% | 7.9% | -1.9% |
| Cc1c(OC(F)(F)CO)ccc(N2CC(C)(C)N[C@@H]3CCCC[C@@H]32)c1F [Example 70] | 0.195 | 28.4% | 15.8% | 17.6% |
| CC1(C)CN(c2ccc(OC(F)(F)CO)c(F)c2F)[C@H]2CCCC[C@H]2N1 [Example 73] | 0.267 | 21.5% | 4.8% | 5.9% |
| Cc1c(N2CC(C)(C)N[C@@H]3CCCC[C@@H]32)ccc(OC(F)(F)CO)c1F [Example 57] | 0.294 | 14.9% | 9.3% | 8.6% |
| Cc1c(OC(F)(F)CO)ccc(N2CC(C)(C)N[C@H]3CCCC[C@H]32)c1F [Example 69, 2-(4-((4aS,8aR)-3,3-dimethyloctahydroquinoxalin-1(2H)-yl)-3-fluoro-2-methylphenoxy)-2,2-difluoroethan-1-ol 1/2fumarate] | 0.211 | 45.6% | 14.8% | 19.7% |
| COc1cc(N2CC3(CCC3)N[C@H]3CCCC[C@@H]32)ccc1OCCO [Example 11] | 0.767 | 14.2% | 7.5% | -1.3% |
| CC1(C)CN(c2cc(Cl)c(OC(F)(F)CO)cc2F)[C@@H]2CCCC[C@H]2N1 [Example 76] | 0.308 | 21.9% | 12.6% | 12.4% |
| CC1(C)CN(c2cc(F)c(OCCO)cc2F)[C@H]2CCCC[C@H]2N1 [Example 72] | 0.766 | 17.9% | 1.7% | -2.4% |
| CC1(C)CN(c2ccc(OCCO)c(Br)c2F)[C@H]2CCCC[C@H]2N1 [Example 63] | 0.261 | 19.2% | 1.1% | 6.1% |
| CC1(C)CN(c2ccc(OCCO)cc2Cl)[C@H]2CCCC[C@H]2N1 [Example 64, 2-(3-chloro-4-((4aR,8aS)-3,3-dimethyloctahydroquinoxalin-1(2H)-yl)phenoxy)ethan-1-ol 1/2fumarate] | 0.499 | 21.6% | 10.2% | 3.9% |
| OCCOc1c(F)cc(N2CC3(CCC3)N[C@H]3CCCC[C@@H]32)cc1Cl [Example 6] | 0.401 | 15% | -6.4% | 23.3% |
| Cc1c(OC(F)(F)CO)ccc(N2CC(C)(C)N[C@H]3CCCC[C@@H]32)c1F [Example 79] | 0.289 | 38.8% | 8.9% | 17.1% |
| CC1(C)CN(c2cc(Cl)c(OC(F)(F)CO)cc2F)[C@H]2CCCC[C@@H]2N1 [Example 75] | 0.277 | 19.3% | 9.1% | 9.9% |
| Cc1cc(N2CC(C)(C)N[C@@H]3CCCC[C@@H]32)ccc1OC(F)(F)CO [Example 48] | 0.413 | -7.8% | -0.7% | -9.2% |
| Cc1cc(N2CC3(CCC3)N[C@H]3CCCC[C@@H]32)cc(F)c1OCCO [Example 14] | 0.615 | 20.5% | 13.6% | 14.4% |
| CC1(C)CN(c2cc(Br)c(OCCO)cc2F)[C@H]2CCCC[C@H]2N1 [Example 62] | 0.404 | 17.8% | 4.6% | -1.6% |
| CC1(C)CN(c2ccc(OC(F)(F)CO)cc2F)[C@H]2CCCC[C@H]2N1 [Example 61, 2-(4-((4aR,8aS)-3,3-dimethyloctahydroquinoxalin-1(2H)-yl)-3-fluorophenoxy)-2,2-difluoroethan-1-ol 1/2fumarate] | 0.337 | 16.1% | 6.8% | -2.7% |
| CC1(C)CN(c2ccc(OC(F)(F)CO)c(Cl)c2F)[C@@H]2CCCC[C@H]2N1 [Example 80] | 0.21 | 20.9% | 2% | 17.6% |
| CC1(C)CN(c2ccc(OCCO)c3occc23)[C@H]2CCCC[C@H]2N1 [Example 51] | 0.553 | 17% | -8.3% | 1.1% |
| CC1(C)CN(c2cc(F)c(OC(F)(F)CO)cc2F)[C@H]2CCCC[C@H]2N1 [Example 71] | 0.285 | 28.8% | 0.6% | -3.4% |
| CC1(C)CN(c2ccc(OCCO)c(Cl)c2)[C@H]2CCCC[C@H]2N1 [Example 44, 2-(2-chloro-4-((4aR,8aS)-3,3-dimethyloctahydroquinoxalin-1(2H)-yl)phenoxy)ethan-1-ol 1/2fumarate] | 0.566 | 10.2% | -11.4% | -10.7% |
| C[C@@H]1CN(c2ccc(OC(F)(F)CO)c(Cl)c2)[C@H]2CCCC[C@@H]2N1 [Example 19] | 0.471 | 5.9% | 5.8% | 16.1% |
| Cc1cc(N2CC(C)(C)N[C@@H]3CCCC[C@@H]32)cc(F)c1OC(F)(F)CO [Example 58] | 0.358 | 16.1% | 2.8% | 13.1% |
| CC1(C)CN(c2ccc(OCCO)c3occc23)[C@@H]2CCCC[C@@H]2N1 [Example 50] | 0.551 | 41.8% | -7.6% | 2% |
| CC1(C)CN(c2ccc(OCCO)c(F)c2)[C@H]2CCCC[C@H]2N1 [Example 52] | 0.73 | 23% | 9.2% | 0.1% |
| OCCOc1ccc(N2CC3(CCC3)N[C@H]3CCCC[C@@H]32)cc1 [Example 8] | 0.686 | 20.1% | 8.1% | 7.1% |
